Test results from patent US10494380B2, “Nitrogen-containing tricyclic derivatives having HIV replication inhibitory activity” (priority 2015, dated 2019).
Read-outs that look alike come from different tables or passages of the source. Each block holds one compound with its values, some of them ahead of it.

Tests used:
Format in all cases: cell-based
HIV = conditions: EC50 in the presence of human serum (25%) versus without human serum, MT-4 cells
Outline: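 Compound is preincubated 1 h at room temperature with human serum, or with medium alone as the serum-free control. MT-4 cells infected with HIV (1 h, 37° C) are added and cultured 4 days. EC50 is determined with and without serum; their ratio gives the potency shift.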

[1] = system: T125A mutant virus (HIV-1 NL-432 recombinant molecular clone, IN gene); experiment: HIV replication inhibition assay against integrase 124/125 mutant virus (Test Example 2)
Outline: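 MT-4 cells (2.5×10^4 per well) infected with 60 pfu of 293T-derived HIV-1 NL-432 clone carrying integrase 124/125 point mutations, in presence of compound, cultured 4 days at 37 °C. Viability by MTT formazan at 560/690 nm; EC50 = concentration inhibiting 50% of virus-induced cytotoxicity.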

HIV (HTLV-IIIB strain) = experiment: HIV replication inhibition assay (Test Example 1; MT-4 cells, MTT)
Description: HIV (HTLV-IIIB strain) persistent infected human T cell strain Molt-4 clone8 was cultured in RPMI-1640 medium supplemented with 10% fetal bovine serum and the supernatant was filtered, then the virus titer was measured and stored at −80° C. Each anti-human immunodeficiency virus active substance was diluted with the above culture medium to the designated concentration, which was dispensed into 96-well microtiter plate by 50 μL. Next, 100 μL of MT-4 cell suspension (2.5×10^4 cells) was dispensed into each well, then 50 μl of the above HIV-containing supernatant diluted with the above culture medium was added thereto (60 pfu (plaque forming unit)).
Cell mixture was cultured at 37° C. in CO2 incubator for four days, then 30 μL of MTT (3-(4,5-dimethylthiazole-2-yl)-2,5-diphenyltetrazolyum bromide) reagent (5 mg/mL in PBS) was added to all wells followed by incubation for 1 hour. In this step, MTT was reduced to insoluble formazan in living cells. To elute generated formazan 150 μL of the culture supernatant was removed from all wells, then 150 μL of cell lysis solution (10% Triton X-100 and 0.4% (v/v)-HCl containing isopropanol) was added thereto, followed by shaking with a plate mixer. The formazan was measured with micro plate reader at OD: 560 nm and 690 nm (reference wavelength) and the result was compared with the reference wells. EC50 and EC90 mean the compound concentration at which cytotoxicity caused by virus infection is inhibited 50% and 90%, respectively.

[2] = Human immunodeficiency virus 1, MT4, read-out: EC50 against T125A mutant virus, T125A mutant virus (HIV-1 NL-432 IN gene), MT-4 cells, MTT
[3] = Human immunodeficiency virus 1, MT4, 96 h, HIV (HTLV-IIIB strain), MT-4 cells, MTT, four days, read-out: EC50
[4] = Human immunodeficiency virus 1, MT4, 96 h, HIV (HTLV-IIIB strain), MT-4 cells, MTT, four days, read-out: EC90
[5] = Human immunodeficiency virus 1, IIIB, MT4, 96 h
[6] = Human immunodeficiency virus 1, MT4, 96 h, MT-4 cells, HIV HTLV-IIIB strain, cultured four days, MTT, read-out: EC50
[7] = T125A mutant virus (HIV-1 NL-432 IN gene), MT-4 cells, MTT, read-out: EC50 against T125A mutant virus
[8] = HIV (HTLV-IIIB strain), MT-4 cells, MTT, four days, read-out: EC50
[9] = HIV (HTLV-IIIB strain), MT-4 cells, MTT, four days, read-out: EC90

Structure (SMILES): Cc1ccc(-c2c([C@H](OC(C)(C)C)C(=O)O)c(C)c3c4c2cc(C(F)F)n4CCN3C)cc1 [Compound I-024]
Potency shift value (HIV): 22
EC50 [1, 2]: 7.7 nM
EC50 (HIV (HTLV-IIIB strain); [3]): 1.6 nM
EC90 (HIV (HTLV-IIIB strain); [4]): 2.1 nM

Structure (SMILES): CC(=O)N1CCn2c(C)cc3c(-c4ccc(Cl)cc4)c([C@H](OC(C)(C)C)C(=O)O)c(C)c1c32 [Compound I-025]
Potency shift value (HIV): 11
EC50 [1, 2]: 13 nM
EC50 (HIV (HTLV-IIIB strain); [3]): 2.3 nM
EC90 (HIV (HTLV-IIIB strain); [4]): 3.1 nM

EC50 (HIV (HTLV-IIIB strain); [3]): 74 nM
EC90 (HIV (HTLV-IIIB strain); [4]): 93 nM
Structure (SMILES): Cc1ccc(-c2c([C@H](OC(C)(C)C)C(=O)O)c(C)c3c4c2cc(C)n4CCN3CCNC2CC2)cc1 [Compound I-028]
Potency shift value (HIV): 2.5

Structure (SMILES): Cc1c([C@H](OC(C)(C)C)C(=O)O)c(-c2ccc(Cl)cc2)c2cc(C)n3c2c1N(S(=O)(=O)CC[Si](C)(C)C)CC3 [Compound I-029]
Potency shift value (HIV): 28
EC50 [1, 2]: 89 nM
EC50 (HIV (HTLV-IIIB strain); [5]): 8.6 nM
EC90 (HIV (HTLV-IIIB strain); [5]): 12 nM

Structure (SMILES): Cc1c([C@H](OC(C)(C)C)C(=O)O)c(-c2ccc(Cl)cc2)c2cc(C)n3c2c1N1C(=O)OCC[C@@H]1C3 [Compound I-167]
Potency shift value (HIV): 4.1
EC50 [1, 2]: 49 nM
EC90 (HIV (HTLV-IIIB strain); [4]): 18 nM
EC50 (HIV (HTLV-IIIB strain); [6]): 7.6 nM

Structure (SMILES): Cc1ccc(-c2c([C@H](OC(C)(C)C)C(=O)O)c(C)c3c4c2cc(C)n4CCN3CCN2CCCO2)cc1 [Compound I-170]
Potency shift value (HIV): 3.5
EC50 [1, 2]: 18 nM
EC90 (HIV (HTLV-IIIB strain); [4]): 5.2 nM
EC50 (HIV (HTLV-IIIB strain); [6]): 3.1 nM

Structure (SMILES): Cc1c([C@H](OC(C)(C)C)C(=O)O)c(-c2ccc(F)cc2)c2cc(C)n3c2c1N(CCN(C)C)CC3 [Compound I-171]
Potency shift value (HIV): 1.4
EC50 [1, 2]: 62 nM
EC90 (HIV (HTLV-IIIB strain); [4]): 24 nM
EC50 (HIV (HTLV-IIIB strain); [6]): 15 nM

Structure (SMILES): Cc1ccc(-c2c([C@H](OC(C)(C)C)C(=O)O)c(C)c3c4c2cc(C)n4CCN3CCN2C3CCC2COC3)cc1 [Compound I-172]
Potency shift value (HIV): 2.3
EC50 [1, 2]: 16 nM
EC90 (HIV (HTLV-IIIB strain); [4]): 5.4 nM
EC50 (HIV (HTLV-IIIB strain); [6]): 3.5 nM

Structure (SMILES): Cc1ccc(-c2c([C@H](OC(C)(C)C)C(=O)O)c(C)c3c4c2cc(C)n4CCN3c2ncc(N3CCN(C)CC3)cn2)cc1 [Compound I-204]
Potency shift value (HIV): 3.6
EC50 [1, 7]: 9.5 nM
EC50 (HIV (HTLV-IIIB strain); [8]): 4.1 nM
EC90 (HIV (HTLV-IIIB strain); [9]): 5.8 nM

Structure (SMILES): COc1cnc(N2CCn3c(C)cc4c(-c5ccc(C)cc5O)c([C@H](OC(C)(C)C)C(=O)O)c(C)c2c43)nc1 [Compound I-205]
Potency shift value (HIV): 32
EC50 [1, 7]: 63 nM
EC50 (HIV (HTLV-IIIB strain); [8]): 16 nM
EC90 (HIV (HTLV-IIIB strain); [9]): 35 nM

Structure (SMILES): Cc1ccc(-c2c([C@H](OC(C)(C)C)C(=O)O)c(C)c3c4c2cc(C)n4CCN3c2ncc(C3CCN(C)CC3)cn2)cc1 [Compound I-213]
Potency shift value (HIV): 3.9
EC50 [1, 7]: 31 nM
EC50 (HIV (HTLV-IIIB strain); [8]): 12 nM
EC90 (HIV (HTLV-IIIB strain); [9]): 19 nM

Structure (SMILES): COc1cnc(N2CCn3c(C)cc4c(-c5ccc(C)cc5)c([C@H](OC(C)(C)C)C(=O)O)c(Cl)c2c43)nc1 [Compound I-226]
Potency shift value (HIV): 26
EC50 [1, 7]: 3.6 nM
EC50 (HIV (HTLV-IIIB strain); [8]): 1.2 nM
EC90 (HIV (HTLV-IIIB strain); [9]): 1.6 nM

Structure (SMILES): Cc1ccc(-c2c([C@H](OC(C)(C)C)C(=O)O)c(C)c3c4c2cc(C)n4CCN3c2noc(C)n2)cc1 [Compound I-227]
Potency shift value (HIV): 15
EC50 [1, 2]: 4.1 nM
EC50 (HIV (HTLV-IIIB strain); [3]): 1 nM
EC90 (HIV (HTLV-IIIB strain); [4]): 1.4 nM

Structure (SMILES): COc1cnc(N2CCn3c(C)cc4c(-c5c(F)cc(C)cc5F)c([C@H](OC(C)(C)C)C(=O)O)c(C)c2c43)nc1 [Compound I-230]
Potency shift value (HIV): 24
EC50 [1, 2]: 6.7 nM
EC50 (HIV (HTLV-IIIB strain); [3]): 1.8 nM
EC90 (HIV (HTLV-IIIB strain); [4]): 3.3 nM

Structure (SMILES): Cc1ccc(-c2c([C@H](OC(C)(C)C)C(=O)O)c(C)c3c4c2cc(C)n4CCN3c2ncc(C)cn2)cc1 [Compound I-235]
Potency shift value (HIV): 46
EC50 [1, 2]: 2.8 nM
EC50 (HIV (HTLV-IIIB strain); [3]): 1.6 nM

Structure (SMILES): Cc1c([C@H](OC(C)(C)C)C(=O)O)c(-c2ccc(Cl)cc2)c2cc(C)n3c2c1N(c1ncc(N2CCOCC2)cn1)CC3 [Compound I-246]
Potency shift value (HIV): 23
EC50 [1, 2]: 4.5 nM
EC50 (HIV (HTLV-IIIB strain); [3]): 2.3 nM
EC90 (HIV (HTLV-IIIB strain); [4]): 2.5 nM

Structure (SMILES): Cc1c([C@H](OC(C)(C)C)C(=O)O)c(-c2ccc(Cl)cc2)c2cc(C)n3c2c1N(c1ncc(OCCO)cn1)CC3 [Compound I-254]
Potency shift value (HIV): 10
EC50 [1, 2]: 17 nM
EC50 (HIV (HTLV-IIIB strain); [3]): 7.9 nM
EC90 (HIV (HTLV-IIIB strain); [4]): 13 nM

Structure (SMILES): COCCCOc1cnc(N2CCn3c(C)cc4c(-c5ccc(Cl)cc5)c([C@H](OC(C)(C)C)C(=O)O)c(C)c2c43)nc1 [Compound I-255]
Potency shift value (HIV): 22
EC50 [1, 2]: 5.1 nM
EC50 (HIV (HTLV-IIIB strain); [3]): 1.6 nM
EC90 (HIV (HTLV-IIIB strain); [4]): 2.4 nM
